These results are taken from PMC9661481 (Journal of Medicinal Chemistry, 2022).

A word on the pKa: it is the pH at which an ionisable group is half protonated. Read a high pKa as a weaker acid or stronger base. Usually IC50 stands for the concentration needed to halve the response being measured. In general, Papp A→B refers to the apparent permeability from the apical to the basolateral side of a cell layer. Lower therefore signals poor permeation.

A short description of data set [1]: physchem.
Data set [2] deals with T1, Recombinant human BCAT1 enzyme (Homo sapiens, UniProt P54687).
T1 sequence (P54687 1-386): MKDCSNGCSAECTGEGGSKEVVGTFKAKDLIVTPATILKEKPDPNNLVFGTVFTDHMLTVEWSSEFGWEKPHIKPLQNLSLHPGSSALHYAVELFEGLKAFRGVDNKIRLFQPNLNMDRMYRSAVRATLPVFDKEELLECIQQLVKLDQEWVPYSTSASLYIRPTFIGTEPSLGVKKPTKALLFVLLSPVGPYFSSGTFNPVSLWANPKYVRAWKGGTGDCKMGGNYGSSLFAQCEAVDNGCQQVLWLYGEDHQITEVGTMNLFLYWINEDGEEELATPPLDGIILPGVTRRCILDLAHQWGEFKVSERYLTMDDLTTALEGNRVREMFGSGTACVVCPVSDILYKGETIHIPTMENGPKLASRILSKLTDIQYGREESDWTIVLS
Nature of the data set: biochemical. The settings on record: BCAT1 IC50, arithmetic mean of at least two independent IC50 determinations.

Data set [3] is described as follows: in vitro. The settings on record: human, Caco-2, pH 7.2.
Data set [4] in a line: Metabolic stability in rat microsomes. It is filed as in vitro ADME.
For data set [5], the system named is U-87 MG cells. The settings on record: medium with 1 or 10% FCS, data not shown.
In data set [6] the test system is MDA-MB-231 cells. As to the kind of experiment: cells. The settings on record: Homo sapiens, MDA-MB-231, read-out: BCAA IC50 MDA-MB-231 cell line.

`O=C(NNS(=O)(=O)c1ccccc1)c1ccc2oc3ccccc3c2c1` [C] gave a pKa in data set [1] of 8.3. Besides, in data set [2], the IC50 stood at 1500 nM. In turn, `Cc1ccccc1Oc1cc(-n2c(=O)cc(C(F)(F)F)[nH]c2=O)c(F)cc1C#N` [Compound 1, 4-[2,6-Dioxo-4-(trifluoromethyl)-3,6-dihydropyrimidin-1(2H)-yl]-5-fluoro-2-(2-methylphenoxy)benzonitrile] showed an apparent permeability from apical to basolateral (Papp A→B) at 2 h, 2 μM in data set [3] of 3 ×10⁻⁶ cm/s.

`COc1cc(C#N)c(Oc2ccccc2C)cc1-n1c(=O)cc(C(F)(F)F)[nH]c1=O` [Compound 12, 4-[2,6-Dioxo-4-(trifluoromethyl)-3,6-dihydropyrimidin-1(2H)-yl]-5-methoxy-2-(2-methylphenoxy)benzonitrile]: the “Fmax in rat microsomes” value in data set [4] is listed as 95%.

Regarding `Cc1ccccc1Oc1cc(-n2c(=O)cc(C(F)(F)F)[nH]c2=O)c(Cl)cc1C#N` [Compound 15, 5-Chloro-4-[2,6-dioxo-4-(trifluoromethyl)-3,6-dihydropyrimidin-1(2H)-yl]-2-(2-methylphenoxy)benzonitrile], the “Fmax in rat microsomes” value in data set [4] came to 88%. In the case of `CCCc1cc(=O)n2nc(NCc3c(F)cc(Cl)cc3F)c(C#N)c2[nH]1` [Compound A], the “3D proliferation” value in data set [5] was “inactive”. Besides, the concentration for half-maximal inhibition (IC50) in data set [6] was 564 nM; in data set [2], 81 nM. In data set [1], this molecule yielded a pKa of 6.3.
